Measurements reported in PubChem BioAssay AID1963597 (National Center for Advancing Translational Sciences (NCATS), 2024).

system: human liver microsomes, metabolic stability half-life; assay: NCATS Human Liver Microsomal (HLM) Stability Profiling; details: higher = more stable; screened at 1 µM (by protocol)
In short: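 Half-life derived from parent loss over 0–60 min (0, 5, 10, 15, 30, 60 min) at 37 °C. Incubations: 0.5 mg/mL microsomes, 1 µM test article, NADPH regeneration, pH 7.4 phosphate; quenched in acetonitrile containing albendazole, analysed by MS.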

Point of comparison: `Cc1ccc(Nc2nc3ccccc3c3nnc(C)n23)c(C)c1`, half-life 6.47 min. Against it:
- NC(=Nc1ccc(CCNCc2cccc(Cl)c2)cc1)c1cccs1 — higher, > 120 min
- COc1cc(NC(=O)Nc2cccc(CNC(=O)O[C@H]3CCOC3)c2)ccc1-c1cnco1 — 4.3-fold higher, 27.7 min
- CC[C@@H]([C@H](C)O)n1ncn(-c2ccc(N3CCN(c4ccc(OC[C@@H]5CO[C@@](Cn6cncn6)(c6ccc(F)cc6F)C5)cc4)CC3)cc2)c1=O — higher, > 120 min
- CC(=O)[C@H]1CC[C@H]2C3CC=C4C[C@@H](O)CC[C@]4(C)C3CC[C@]12C (stereo partly drawn) — 16-fold higher, 106 min
- COc1ccc2c(c1OC)C(=O)O[C@@H]2[C@H]1c2cc3c(cc2CCN1C)OCO3 — 16-fold higher, 103 min
- CCC(=O)N1CCC(n2nccc2NC(=O)Nc2ccccc2Cl)CC1 — 14-fold higher, 89.7 min
- Cc1ccc(NC(=O)Nc2cccs2)c(C)c1 — 3.7-fold higher, 23.8 min
- O=C(O)Cc1sc(-c2ccccc2)nc1-c1ccc(Cl)cc1 — 2.3-fold lower, 2.82 min
- O=C1CCC(c2ccccc2)(C2CCN(Cc3ccc(I)cc3)CC2)C(=O)N1 (stereo not drawn) — higher, > 120 min
- COc1ccc(C(=O)c2ccccc2O)c(O)c1 — within 1.5-fold, 8.9 min
- C#CCN(Cc1cc2c(=O)[nH]c(C)nc2cc1Br)c1ccc(C(=O)NCc2cccnc2)cc1 — within 1.5-fold, 9.7 min
- O=c1c(N2CCN(c3cccc(Cl)c3)CC2)csc2ccc(Cl)cc12 — 2-fold higher, 12.8 min
- CS(=O)(=O)c1ccc([C@@H](O)[C@@H](CO)NC(=O)C(Cl)Cl)cc1 — higher, > 120 min
- CC(CCc1ccc(O)cc1)NCC(O)c1ccc(O)cc1 (stereo not drawn) — higher, > 120 min
- Cc1nc2c3ccccc3nc(NNC(=O)CCC(=O)N3CCN(c4ccc(F)cc4)CC3)n2n1 — 6.2-fold higher, 40.4 min
- CN1[C@@H]2CC[C@H]1CC(OC(=O)c1c[nH]c3ccccc13)C2 (stereo partly drawn) — higher, > 120 min
- CN(C(=O)CN(CCO)CC(=O)N(C)C(C)(C)Cc1ccccc1)C(C)(C)Cc1ccccc1 — 11-fold lower, 0.58 min
- CCOP(=S)(OCC)O/N=C(\C#N)c1ccccc1 — within 1.5-fold, 8.67 min
- CCCCS(=O)(=O)N[C@@H](Cc1ccc(OCCCCC2CCNCC2)cc1)C(=O)O — higher, > 120 min
- CN1C(=O)COc2c(C(=O)NC3CN4CCC3CC4)cc(Cl)cc21 (stereo not drawn) — higher, > 120 min
- CCN1C(=O)NC(c2ccccc2)C1=O (stereo not drawn) — higher, > 120 min
- O=C(Nc1c(-c2cccs2)nc2ccccn12)c1ccc(Cl)cc1 — higher, > 120 min
- C=CCN1CC[C@]23c4c5ccc(O)c4O[C@H]2C(=O)CC[C@@]3(O)[C@H]1C5 — higher, > 120 min
- CCOC(=O)[C@H](CCc1ccccc1)N[C@H]1CCCN2CCC[C@@H](C(=O)O)N2C1=O — 2.6-fold higher, 16.7 min
- C#CCN(C)CCCOc1ccc(Cl)cc1Cl — 1.8-fold lower, 3.52 min
- Cc1cc(O)c(-c2ccc([C@@H](C)CN(C)C)cc2)c2c1[nH]c(=O)c1sccc12 — 15-fold higher, 95.3 min
- CN(C(=O)c1ccc(F)cc1C(F)(F)F)C1CCN(c2nnc(-c3ccnn3C)c3ccccc23)CC1 — 4.7-fold higher, 30.3 min
- CCN(CC)C(=O)SCc1ccc(Cl)cc1 — 2.5-fold lower, 2.59 min
- CN/C(=C\[N+](=O)[O-])NCCSCc1csc(CN(C)C)n1 — higher, > 120 min
- CC1=C2[C@H]3OC(=O)[C@@H](C)[C@@H]3CC[C@@]2(C)C=CC1=O — higher, > 120 min
- CCOC(=O)c1ccc(OCCN2C[C@H](O)[C@@H](O)[C@H](O)[C@H]2CO)cc1 — higher, > 120 min
- CC1=C(c2ccc(NC(=O)c3c(F)cccc3F)cc2)CN(c2nccs2)CC1 — 6-fold higher, 38.9 min
- CC(C(=O)O)C1C=CC(C(=O)c2ccccc2)S1 (stereo not drawn) — higher, > 120 min
- C[C@@H]1O[C@@H](OC[C@H]2O[C@@H](Oc3c(-c4ccc(O)c(O)c4)oc4cc(O)cc(O)c4c3=O)[C@H](O)[C@@H](O)[C@@H]2O)[C@H](O)[C@H](O)[C@H]1O — higher, > 120 min
- Cc1cccc(N(C)C(=S)Oc2ccc3c(c2)CCC3)c1 — 3.3-fold lower, 1.94 min
- COc1ccc2nc(S(=O)Cc3ncc(C)c(OC)c3C)[nH]c2c1 (stereo not drawn) — higher, > 120 min
- CCOc1ccc(Nc2nc(C)c(NC(=O)c3ccc(C)cc3)c(Nc3ccc(OCC)cc3)n2)cc1 — 1.9-fold higher, 12.2 min
- Cc1ccc(-c2noc([C@@H]3Cc4nc[nH]c4CN3Cc3cccc(C#N)c3)n2)cc1 — 1.8-fold higher, 11.4 min
- CCN1CCN(Cc2ccc(NC(=O)c3ccc(C)c(/C=C/c4cnc5[nH]ccc5c4OC)c3)cc2C(F)(F)F)CC1 — higher, > 120 min
- CCc1ccc(CNC(=O)c2sc3ncccc3c2-n2c(C)ccc2C)cc1 — 3.4-fold lower, 1.9 min
- N[C@@H](Cc1ccc(Oc2cc(I)c(O)c(I)c2)c(I)c1)C(=O)O — higher, > 120 min
- Oc1c(Cl)cc(Cl)c2cccnc12 — 3.9-fold higher, 25.2 min
- COc1ccc2c(CNCCc3ccccc3OC)c(C(=O)O)n(Cc3ccc(F)cc3Cl)c2c1 — 3.6-fold lower, 1.79 min
- COc1ccccc1CN[C@H]1C2CCN(CC2)[C@H]1C(c1ccccc1)c1ccccc1 — 5.4-fold higher, 35 min
- CN1C(C(=O)Nc2ccccn2)=C(O)c2sccc2S1(=O)=O — higher, > 120 min
- O=C(O)CN1C(=O)c2cccc3cccc(c23)C1=O — higher, > 120 min
- C=CC(=O)N1CCN(C(=O)CNc2cc(-c3ccccc3Cl)c(Cl)cc2OC)CC1 — 1.5-fold higher, 9.86 min
- CNC(=O)c1cnn(-c2nc(N)c3ncn([C@@H]4O[C@H](CO)[C@@H](O)[C@H]4O)c3n2)c1 — higher, > 120 min
- Clc1ccc(CO/N=C(\Cn2ccnc2)c2ccc(Cl)cc2Cl)c(Cl)c1 — 8.5-fold higher, 55.1 min
- C=CCc1ccccc1OCC(O)CNC(C)C (stereo not drawn) — 3.4-fold higher, 22 min
- C#CCOC(C(=O)OCCN(C)C)(c1ccccc1)c1ccccc1 — 6.8-fold higher, 43.7 min
- CC(C)(C)c1ccc(-c2nc(SCC(=O)Nc3ccc(Cl)cc3)[nH]c(=O)c2C#N)cc1 — 3-fold higher, 19.2 min
